Measured values published in ChEMBL document CHEMBL3045233, “Insecticidal and neuroblocking potencies of variants of the imidazolidine moiety of imidacloprid-related neonicotinoids and the relationship to partition coefficient and charge density on the pharmacophore” (J Agric Food Chem, 2007).

Legend:
[1] = Hydrophobicity, log P of the compound in octanol-water by shaking-flask method; assay type: physicochemical
[2] = target: T1, Nicotinic acetylcholine receptor alpha8 subunit (Periplaneta americana) (UniProt H6TY12); assay: Neuroblocking activity in Periplaneta americana (American cockroach) nicotinic acetylcholine receptor in abdominal fifth and sixth ganglia nerve assessed as neuroblocking concentration by neurophysiological test
T1 sequence (whole entry): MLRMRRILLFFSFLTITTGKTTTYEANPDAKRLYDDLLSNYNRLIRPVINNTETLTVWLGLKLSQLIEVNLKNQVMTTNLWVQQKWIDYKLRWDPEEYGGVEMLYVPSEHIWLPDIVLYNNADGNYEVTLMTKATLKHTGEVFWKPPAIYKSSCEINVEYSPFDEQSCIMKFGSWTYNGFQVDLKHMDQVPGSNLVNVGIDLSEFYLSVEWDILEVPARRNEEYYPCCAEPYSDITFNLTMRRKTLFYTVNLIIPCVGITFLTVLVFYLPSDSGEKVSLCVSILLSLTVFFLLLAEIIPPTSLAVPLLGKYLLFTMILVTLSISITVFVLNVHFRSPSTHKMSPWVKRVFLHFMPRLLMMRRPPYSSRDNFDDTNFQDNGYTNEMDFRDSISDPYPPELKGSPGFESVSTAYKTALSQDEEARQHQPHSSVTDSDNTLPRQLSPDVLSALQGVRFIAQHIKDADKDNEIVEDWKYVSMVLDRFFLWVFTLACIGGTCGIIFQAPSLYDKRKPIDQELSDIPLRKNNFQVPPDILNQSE

Periplaneta americana = assay: Toxic effect in Periplaneta americana (American cockroach) assessed as paralyzed insects after 24 hr of abdomen compound injection by insecticidal assay; assay type: functional

Row | SMILES | logP [1] | log(1/BC) [2] | log(1/MLD) (Periplaneta americana)
1 | CN1CCN(Cc2ccc(Cl)nc2)/C1=N/[N+](=O)[O-] | -0.07 | 3.81 | 8.53
2 | O=[N+]([O-])NC1=NCCN1Cc1ccc(Cl)nc1 [IMIDACLOPRID] | 0.53 | – | –
3 | O=[N+]([O-])/C=C1\SCCN1Cc1ccc(Cl)nc1 | 0.47 | 6.19 | 9.76
4 | O=[N+]([O-])/N=c1\sccn1Cc1ccc(Cl)nc1 | 0.53 | 5.68 | 8.85
5 | O=[N+]([O-])/N=C1\NCCCN1Cc1ccc(Cl)nc1 | 0.57 | 5.35 | 8.22
6 | O=[N+]([O-])/C=C1\CCCN1Cc1cnc(Cl)s1 | – | 6.31 | 8.96
7 | O=[N+]([O-])/C=C1\NCCN1Cc1ccc(Cl)nc1 | -0.18 | 5.02 | 9.19
8 | CN1CCN(Cc2ccc(Cl)nc2)/C1=C/[N+](=O)[O-] | -0.84 | 3.84 | 7.77
9 | O=[N+]([O-])/C=C1\NCCN1Cc1cnc(Cl)s1 | 0.03 | 5.73 | 9.34
10 | O=[N+]([O-])/N=C1\NCCN1Cc1ccc(Cl)nc1 [IMIDACLOPRID] | – | 5.64 | 8.96
11 | O=[N+]([O-])/N=C1\SCCN1Cc1cnc(Cl)s1 | 0.8 | 6 | 7.42
12 | O=[N+]([O-])/C=C1\CCCN1Cc1ccc(Cl)nc1 | 0.45 | 6.43 | 9.84
13 | O=[N+]([O-])/N=C1\NCCN1Cc1cnc(Cl)s1 [IMIDACLOTHIZ] | 0.61 | 5.97 | 8.42
14 | O=[N+]([O-])/N=c1\sccn1Cc1cnc(Cl)s1 | 0.96 | 5.79 | 7.85
15 | O=[N+]([O-])/N=c1\[nH]ccn1Cc1cnc(Cl)s1 | 0.27 | 4.61 | 8.12
16 | O=[N+]([O-])Nc1nccn1Cc1ccc(Cl)nc1 [DEHYDROIMIDACLOPRID] | 0.33 | 4.31 | 7.72
17 | O=[N+]([O-])/N=c1\ccccn1Cc1cnc(Cl)s1 | 0.67 | 5.75 | 8.92
18 | O=[N+]([O-])/N=c1\ccccn1Cc1ccc(Cl)nc1 | 0.51 | 5.09 | 8.88
